Some results are limits rather than exact numbers.

The test system of experiment [1] is B. cereus 204. As to the kind of experiment: Chicken soup trial at 8° C. Format: cell-based, Bacillus cereus. To be noted: chicken soup at 8° C. The source says: A local supermarket brand of cream of chicken soup was used as a model food system. 600 g packs were purchased from the local supermarket. This was a ‘fresh home-made type’ of soup that was stored in the chill cabinet, with a short shelf life. It was chosen because it is a rich, nutritious food system containing a range of food components including meat, dairy and vegetable.
Ingredients were labelled as: chicken stock (water, duck fat, chicken, salt, flavourings, yeast extracts, pork gelatine, glucose syrup, vegetable concentrate, milk protein, sugar, malto-dextrin, vegetable oil, citric acid, lactose, chicken fat), ilk, chicken (9%), cream (8%), onion, potato, vegetable oil, modified maize starch, wheat flour, lemon juice, salt, white pepper. pH 5.912. Protein: 3.3%; carbohydrate: 4.7%; fat: 7.2%; fibre: 0.2%; sodium: 0.1%
For the test the soup was mixed 2:1 in water (to facilitate sampling and mixing) and sterilised by autoclaving at 121° C. for 15 minutes. For each experiment the pH of the soup was recorded; this was between pH 5.79-5.88.
For TCS010412/8 (which was incubated at 8° C.), APP batch number APP20010213 (concentration 169 mg APP/ml) was used to prepare tests containing 0, 2000 or 4000 ppm APP. 5 g of filter-sterilised APP stock solution was added to 94 g of soup, mixed and then 1 ml of a diluted inoculum suspension (cells or spores as appropriate) was added to give a test inoculum level of 10^3 cfu/g. The soup mixture was shaken vigorously to ensure homogeneous distribution of the APP and micro-organisms. The tests were tested by viable count and then incubated at 8° C. and tested on a twice-weekly basis.
For TCS010521/8 (incubated at 8° C.), samples were prepared in 27.8 g quantities. 1.5 g of an APP stock solution was added, and the tests inoculated with 0.3 ml of a suitably diluted cell or spore suspension to give a final inoculum of ca. 10^3 cfu/g. APP was tested at 0, 500 and 1000 ppm, and batch number APP20010213 (at 169 mg/ml) was used. The tests were sampled by viable count and then incubated at 8° C. and tested on a twice-weekly basis.

The test system of experiment [2] is Salm Typhimurium S29. The experiment is described as follows: Test in cooked minced chicken slurry. As to conditions: for Total inhibition for: minced chicken slurry at 8° C., pH 6.42, TCC010704. Format: cell-based, Salmonella Typhimurium. As to the method:
1 kg of minced chicken (mainly lean meat) was purchased from the local butcher. This was mixed with 1 litre of BHI, mixed and dispensed as 100 g samples prior to autoclaving. When still warm, the meat was re-mixed thoroughly. When cooked, the meat was inoculated with 1 ml of 10^5 spores or cells (from an overnight broth), and re-mixed. The samples were then divided into 3×25 g portions, to which 0.5 ml of filter-sterilised APP20010215 was added (as 5% or 10% stock solutions) or water. An initial viable count was taken, and the samples then incubated at 8° C. and tested twice weekly. The pH of the chicken slurry was 6.42.

Experiment [3] deals with L. monocytogenes S23. The experiment is described as follows: Bioscreen growth inhibition test. Format: cell-based, Listeria monocytogenes. As to conditions: BS010411, 24 h at 30° C. As to the method: (§1) For broth cultures and Bioscreen testing most bacteria were grown in Brain Heart Infusion (BHI, Oxoid, pH 7.4). Lactobacillus sake A10 was grown in de Man, Rogosa, Sharpe medium ([…], Oxoid). Yeasts were grown in Sabouraud Liquid medium (SLM, Oxoid). Most bacteria were cultured at 30° C. Lactic acid bacteria were grown on solid medium in enriched CO2 atmosphere. Clostridium species were grown in Reinforced Clostridial Medium (RCM) at 37° C. anaerobically. Brochothrix thermosphacta fungi and yeasts were grown at 25° C. Fungi were cultured on Malt Extract Agar (MEA, Oxoid).
(§2) An automated Microbiology Reader Bioscreen C was used to measure growth curves of the strains in the presence and absence of APP. The Bioscreen C measures the development of turbidity (i.e. growth) kinetically by vertical photometry in 200 wells of a honeycomb microtitre plate, simultaneously. The system consists of a Bioscreen C analyser, which is an incubator and measurement unit, integrated with a PC, software (BioLink v 5.30), printer and a ‘Honeycomb 2’ cuvette multiwell plate. Growth curve data can be analysed within the BioLink software or exported to programs such as Excel.
(§3) Broth culture media were dispensed in 270 μl volumes into the wells as directed. Serial dilutions of a filter-sterilised APP stock solution were then dispensed into the same wells, as appropriate. The wells were inoculated with 30 μl of an appropriately diluted overnight broth culture or spore suspension, to give a final inoculum level of […]. The tests were incubated in the Bioscreen C for either 24 h at 30° C., or 72 h at 25° C. (depending on the micro-organism under investigation) with readings taken every 20 minutes after the trays were shaken. After the incubation period was complete the data were exported to Excel for analysis.

The subject of experiment [4] is L. monocytogenes 272. As to the kind of experiment: Bioscreen growth inhibition test. To be noted: BS010411, 24 h at 30° C. Format: cell-based, Listeria monocytogenes. As to the method:
as §1, §2, §3

For experiment [5], the system named is L. monocytogenes 358. As to the kind of experiment: Bioscreen growth inhibition test. It is filed as cell-based, Listeria monocytogenes. To be noted: BS010510, 24 h at 30° C., APP20010213. As to the method: as §1, §2, §3
Experiment [6] deals with L. monocyt. Scott A. As to the kind of experiment: Bioscreen growth inhibition test. Format: cell-based, Listeria monocytogenes. To be noted: BS010510, 24 h at 30° C., APP20010213. The procedure: as §1, §2, §3
For experiment [7], the system named is L. monocyt. F6861. The experiment is described as follows: Bioscreen growth inhibition test. Format: cell-based, Listeria monocytogenes. As to conditions: BS010510, 24 h at 30° C., APP20010213. As to the method:
as §1, §2, §3

The subject of experiment [8] is Salmonella sp. S19. As to the kind of experiment: Bioscreen growth inhibition test. It is filed as cell-based. To be noted: BS010510, 24 h/30, APP20010213. The procedure: as §1, §2
Broth culture media were dispensed in 270 μl volumes into the wells as directed. […] (depending on the micro-organism under investigation) with readings taken every 20 minutes after the trays were shaken. […]

Experiment [9] deals with S. cerevisiae ATCC9763. The experiment is described as follows: Test in apple juice. Format: cell-based, Saccharomyces cerevisiae. As to conditions: 2000 ppm; apple juice (pH 3.42) at 25° C., TAJ010530. As to the method: 8.9 ml apple juice samples (pH 3.42) were prepared and autoclaved. Batch number APP20010215 (at 138 mg/ml) was used to prepare filter-sterilised stock solutions for 1 ml addition to the juice to achieve 0, 1000, 2000 ppm APP. Tests were inoculated with 100 μl of an appropriately diluted overnight SLM broth of yeast culture or ascospore suspension of Byssochlamys spores prepared earlier. The tests were incubated at 25° C., and examined daily for signs of growth (e.g. turbidity, mycelium development).

Regarding `O=C1CC(CO)OC=C1O` (stereo not drawn) [APP, Ascopyrone P], the “Counts / spore kill” value in [1] (500 and 1000 ppm, TCSM010521, APP215) was “Counts remain at approx initial level, i.e. no spore kill”; in experiment [1] (2000 and 4000 ppm, TCS010412, APP20010213) it was “Counts remain at initial level, i.e. no spore kill”. Moreover, the “Total inhibition for” value was “Total inhibition by 500 and 1000 ppm for >27 days” in experiment [1] (500 ppm, TCSM010521, APP215); “Total inhibition by 500 and 1000 ppm for >27 days” in experiment [1] (1000 ppm, TCSM010521, APP215); “Total inhibition by 2000 and 4000 ppm for >60 days” in [1] (2000 ppm, TCS010412, APP20010213); “Total inhibition by 2000 and 4000 ppm for >60 days” in experiment [1] (4000 ppm, TCS010412, APP20010213); “Total inhibition by 1000 ppm for 25 d” in experiment [2] (1000 ppm); “Total inhibition by 2000 ppm for >40 d” in experiment [2] (2000 ppm). The “Total inhibition (effect on growth of target organism by 2000 ppm APP)” value in experiment [2] (Cooked minced chicken slurry at 8° C. pH 6.42) is reported as “S. Typhimurium”. Moreover, the “APP level causing significant inhibition” value in experiment [3] (APP20010213) came out at 2000 ppm; in experiment [3] (APP20010215) it was 1000 ppm; in experiment [4] (APP20010213), 2000 ppm; in [4] (APP20010215), 2000 ppm; in [6], 2000 ppm; in [7], 2000 ppm. For the same molecule, the “APP level causing total inhibition” value is 4000 ppm in experiment [3] (APP20010213); 4000 ppm in experiment [3] (APP20010215); 4000 ppm in [4] (APP20010213); above 4000 ppm in experiment [4] (APP20010215); 3000 ppm in experiment [5]; 3000 ppm in experiment [6]. Besides, the “APP level causing total inhibition” value in experiment [7] came to 3000 ppm; in experiment [8], 4000 ppm. Also, in [9], the “Growth controlled for” value worked out at 1 days.

Source of the values: US20030203963A1, “Antimicrobial agent” (priority 2001, published 2003).
